In one data set the target is MMK1 protein kinase (Vicia faba, UniProt A0AAV1B7B8). The data set can be described thus: Plant MMK1 protein kinase inhibition assay. Particulars: plant kinase purified from Vicia faba extracts. Format: biochemical. As to the method:
Protein extraction and purification of pant CDK by binding to p13^suc1-beads or immunopurification with an antibody specific to the cdc2a-MS protein was carried out as described previously (Bögre et al. 1997, Plant Physiol. 113, 1997, 841-852). The MMK1 protein kinase was purified with a specific antibody from Vicia faba extracts as described by Bögre et al. 1997a, Plant Cell 9, 75-83). Protein kinase activity was measured as described above in Example 19. The quantification of radioactivity incorporated into histone H1 or myelin basic protein was undertaken using Phosphoimager (original gel images shown on FIG. 1). IC50 were calculated from dose-response curves. The drugs inhibited the activity of immunopurified Vicia faba and alfalfa Cdc2-kinase. […] In contrast to the regular bipolar spindle in untreated cell, in drug-treated metaphase cells abnormally short and dense kinetochore microtubule fibres were observed. These microtubules were randomly arranged in the vicinity of the kinetochores and connected the chromosomes. Thus the chromosomes were not aligned on the metaphase plate but were arranged in a circle, with kinetochores pointing inwards and chromosome arms pointing outwards. γ-tubulin, which plays a role in microtubule nucleation, also localised to the centre of the monopolar spindle.

Data set [1] deals with CDK2 (p33^cdk2, cyclin E) (Homo sapiens, UniProt P24941). Briefly: CDK inhibition assay, p33^cdk2 kinase, histone H1 phosphorylation.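 Further: Baculovirus-expressed kinase/cyclin complex from Sf9 cell extract, 10 min at 30 °C, phosphoproteins separated by SDS gel and quantified by image analysis, activity relative to DMSO control.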
Procedure: Cyclin-dependent kinases (p34^cdc2, p33^cdk2) and cyclins (cyclin B, E) are produced in Sf9 insect cells coinfected with appropriate baculoviral constructs. The cells are harvested 68-72 hrs post infection in lysis buffer for 30 min on ice and the soluble fraction is recovered by centrifugation at 14.000 g for 10 min. The protein extract is stored at −80° C.
Lysis buffer: 50mM Tris pH 7.4, 150mM NaCl, 5 mM EDTA, 20 mM NaF, 1% Tween, 1 mM DTT, 0.1 mM PMSF, leupeptine, aprotonine.
To carry out experiments on kinetics under linear conditions, the final point test system for kinase activity measurement is used. The kinase is added to reaction mixture in such a way as to obtain linear activity with respect to the concentration of enzyme and with respect to time.
Kinase activity is determined at 30° C. in the kinase buffer.
Tested compounds are usually dissolved to 100 mM solutions in DMSO, final concentration of DMSO in reaction mixture never exceeds 1%. The controls contain suitable dilutions of DMSO.
After 10 min, addition 3×SDS sample buffer stops the incubations. Phosphorylated proteins are separated electrophoretically using 10% SDS polyacrylamide gel. The measurement of kinase activity is done using digital image analysis.
The kinase activity is expressed as a percentage of maximum activity, the apparent inhibition constants are determined by graphic analysis.
Kinase buffer: 50 mM Hepes pH 7.4, 10 mM MgCl2, 5 mM EGTA, 10 mM
Data set [2] deals with T1, CDK1 (p34^cdc2, cyclin B) (Homo sapiens, UniProt P06493).
T1 construct: made in house; host or cells: Sf9 insect cells (baculovirus co-infection)
The data set can be described thus: CDK inhibition assay, p34^cdc2 kinase, histone H1 phosphorylation. Particulars: 15 μM ATP, histone H1, 30° C. Format: biochemical. As to the method:
The controls contain suitable dilutions of DMSO.
2-glycerolphosphate, 1 mM NaF, 1 mM DTT

For data set [3], the target named is CDC2a (cdc2a-MS protein, plant Cdc2-kinase) (Medicago sativa, UniProt P24923). Type of data set: biochemical. As to the method:
(§1) Enzyme activity bound to p13^suc1-agarose was measured by phosphorylation of histone H1 substrate protein in the presence of various concentrations of (1) 7-furfurylamino-3-methylpyrazolo[4,3-d]pyrimidine, (2) 7-benzylamino-3-isopropylpyrazolo[4,3-d]pyrimidine, (3) 7-(3-chloroanilino)-3-isopropylpyrazolo[4,3-d]pyrimidine, (4) 7-(3-hydroxybenzyl)amino-3-isopropylpyrazolo[4,3-d]pyrimidine.
(§2) The quantification of radioactivity incorporated into histone H1 or myelin basic protein was undertaken using Phosphoimager (original gel images shown on FIG. 1). IC50 were calculated from dose-response curves.

In data set [4] the test system is MCF7 (human breast adenocarcinoma). Briefly: In vitro cytotoxic activity, Calcein AM, three days. Type of data set: cell-based. As to the method:
(§3) We have been using the following cell lines: HELA (human cervical carcinoma), MCF7 (human breast adenocarcinoma), NIH 3T3 (mouse fibroblasts), HOS (human osteogenic sarcoma), HL 60 (human promyelocytic leukemia), G 361 (human malignant melanoma), K562 (human chronic myeloblastic leukemia), CEM (human lymphoblastoid leukaemia). Tested drugs were added to the cell cultures in six different concentration and kept at 37° C. and 5% CO2 for three days. All cell lines were grown in DMBM medium (Gibco BRL) supplemented with 10% (v/v) fetal bovine serum and L-glutamine and maintained at 37° C. in a humidified atmosphere with 5% CO2. 10^4 cells were seeded into each well of 96 well plate, allowed to stabilize for at least 2 h and then tested compounds were added at various concentrations ranging from 200 to 0.2 μM in triplicates. Three days after drug addition Calcein AM solution (Molecular Probes) was added and let to enter the cells for 1 hour. Fluorescence of viable cells was quantified employing Fluoroskan Ascent (Microsystems).

The subject of data set [5] is K562 (human chronic myeloblastic leukemia). The description is as above. The conditions noted are these: read-out: K-562 IC50. Format: cell-based. As to the method:
as §3

In data set [6] the test system is Cytokinin-dependent tobacco callus Nicotiana tabacum L. cv. Wisconsins 38. Briefly: Tobacco callus bioassay for cytotoxicity (herbicidal activity). Particulars: Nicotiana tabacum, 672 h, four weeks. Format: cell-based. As to the method: The compounds to be tested were dissolved in dimethylsulfoxide (DMSO) and the solution brought up to 10^−3 M with distilled water. […] Cytokinin-dependent tobacco callus Nicotiana tabacum L. cv. […] Subcultivation was carried out every three weeks. Fourteen days before the bioassay, the callus tissue was transferred to the media without 6-benzylaminopurine. Compounds were tested with two different concentrations of 6-benzylaminopurine (10^−5 M and 10^−6 M). Inhibitory growth activity was determined from the increase in fresh callus weight after four weeks of cultivation. Five replicates were prepared for each concentration tested and the entire test was repeated at least twice.

Data set [7] relates to CDC2a (cdc2a-MS protein, plant Cdc2-kinase). Type of data set: biochemical. Particulars: enzyme bound to p13^suc1-agarose, histone H1, various concentrations. As to the method:
as §1, §2

Data set [8] relates to root meristem cells of V. faba. Briefly: Antimitotic and apoptotic effects in plant root meristem cells. Format: cell-based, Vicia faba. The conditions noted are these: high doses.
The mark [9] stands for this setting: read-out: CDK2 IC50, 15 μM ATP, histone H1, 30° C.
[10] abbreviates: read-out: IC50, growth of tobacco callus, 10^−5 M BAP, 10^−5 M 6-benzylaminopurine.
The mark [11] stands for this setting: 10^−6 M 6-benzylaminopurine, read-out: IC50, growth of tobacco callus, 10^−6 M BAP.

Consider 18 compounds from US20070167466A1, “"Pyrazolo [4,3-d]pyrimidines, processes for their preparation and methods of use"” (priority 2003, published 2007).

Each structure is given as a SMILES string. pIC50: −log10 of the molar value. Where a name gives a salt, the structure may show the parent alone. Read-outs that look alike come from different tables or passages of the source.

T1 sequence (P06493 whole entry, species assumed): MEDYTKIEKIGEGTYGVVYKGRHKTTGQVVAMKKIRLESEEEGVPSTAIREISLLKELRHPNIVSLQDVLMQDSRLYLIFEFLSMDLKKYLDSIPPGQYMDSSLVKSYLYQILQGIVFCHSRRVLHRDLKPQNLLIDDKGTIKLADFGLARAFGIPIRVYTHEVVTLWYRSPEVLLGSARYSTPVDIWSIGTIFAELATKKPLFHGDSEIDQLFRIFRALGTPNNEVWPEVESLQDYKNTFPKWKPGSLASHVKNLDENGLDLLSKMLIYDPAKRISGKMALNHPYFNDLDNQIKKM
T1 sequence (P14635 whole entry partner, species assumed): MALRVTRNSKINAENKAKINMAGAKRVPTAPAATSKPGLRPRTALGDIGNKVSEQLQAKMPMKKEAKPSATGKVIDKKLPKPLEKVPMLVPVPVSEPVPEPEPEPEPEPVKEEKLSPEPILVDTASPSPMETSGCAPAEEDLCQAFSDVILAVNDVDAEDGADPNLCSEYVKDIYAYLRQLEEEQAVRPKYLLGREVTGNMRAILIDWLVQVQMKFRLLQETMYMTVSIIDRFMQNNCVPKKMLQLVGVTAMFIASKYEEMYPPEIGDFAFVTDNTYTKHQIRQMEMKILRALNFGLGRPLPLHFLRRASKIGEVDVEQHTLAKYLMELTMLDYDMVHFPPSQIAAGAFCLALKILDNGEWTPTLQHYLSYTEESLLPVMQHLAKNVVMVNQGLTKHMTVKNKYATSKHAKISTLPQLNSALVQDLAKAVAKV
MMK1 protein kinase, sequence (A0AAV1B7B8 entry or part of it): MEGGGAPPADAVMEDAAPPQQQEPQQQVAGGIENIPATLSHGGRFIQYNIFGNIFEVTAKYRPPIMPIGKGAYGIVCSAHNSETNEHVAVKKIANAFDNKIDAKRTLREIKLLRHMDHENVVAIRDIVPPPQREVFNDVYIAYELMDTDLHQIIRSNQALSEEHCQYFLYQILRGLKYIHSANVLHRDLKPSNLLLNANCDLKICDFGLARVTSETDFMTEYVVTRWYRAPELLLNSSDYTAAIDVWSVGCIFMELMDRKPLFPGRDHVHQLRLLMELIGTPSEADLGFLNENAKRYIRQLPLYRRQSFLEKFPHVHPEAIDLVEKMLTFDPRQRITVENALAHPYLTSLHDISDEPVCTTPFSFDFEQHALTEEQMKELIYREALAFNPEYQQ
CDC2a (cdc2a-MS protein, plant Cdc2-kinase) (Medicago sativa, UniProt P24923), sequence (P24923 whole entry): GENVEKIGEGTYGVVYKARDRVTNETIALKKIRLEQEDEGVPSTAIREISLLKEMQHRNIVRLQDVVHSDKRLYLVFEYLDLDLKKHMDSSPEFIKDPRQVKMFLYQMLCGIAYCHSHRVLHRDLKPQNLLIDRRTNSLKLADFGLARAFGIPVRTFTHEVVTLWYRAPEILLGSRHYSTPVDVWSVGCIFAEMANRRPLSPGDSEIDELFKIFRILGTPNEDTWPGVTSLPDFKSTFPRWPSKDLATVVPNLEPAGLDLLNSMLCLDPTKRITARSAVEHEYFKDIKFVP

The term melting point denotes the temperature of the solid-liquid transition. As to `CC(C)c1n[nH]c2c(Nc3cccc(Cl)c3)ncnc12` (as salt: salt) [3-chloroanilino / isopropyl, 7-(3-chloroanilino)-3-isopropylpyrazolo[4,3-d]pyrimidine], the melting point was 213 to 216 °C.
A word on the pIC50: it is the negative decadic logarithm of the IC50, by convention in mol/L. As to `Cc1n[nH]c2c(NCc3ccccc3Cl)ncnc12` [2-chlorobenzylamino / methyl], the pIC50 at MMK1 protein kinase was 4.60; in [1] (setting [9]), 4.62; in data set [2], 4.60.
For the compound `CC(C)c1n[nH]c2c(Nc3ccc(Cl)c(C(=O)O)c3)ncnc12` [3-carboxy-4-chloroanilino / isopropyl], the pIC50 against MMK1 protein kinase was 5.77; in data set [1] (setting [9]), 5.54; in [2], 5.55; in data set [3] it was 5.80; in [4], 6.40; in data set [5], 6.00.
With `Cc1n[nH]c2c(Nc3ccc(N)c(Cl)c3)ncnc12` [3-chloro-4-aminoanilino / methyl], the pIC50 against MMK1 protein kinase is 4.49; in [1] (setting [9]), 4.55; in [2], 4.59; in data set [3], 4.52.
Regarding `CC(C)c1n[nH]c2c(Nc3cccc(Cl)c3)ncnc12` [3-chloroanilino / isopropyl, 7-(3-chloroanilino)-3-isopropylpyrazolo[4,3-d]pyrimidine], the pIC50 is 4.47 in data set [6] (setting [10]); 5.09 in data set [6] (setting [11]); 6.10 in data set [1]; 5.70 in data set [2]; 5.05 in data set [4] (Homo sapiens, MCF7, 72 h); 4.92 in data set [5] (Homo sapiens, K562, 72 h). In [7], the “inhibition of plant cdc2 kinase activity (FIG. 1)” value (“inhibition” for short) is reported as “specific inhibition”.
On to `Cc1n[nH]c2c(Nc3cccc(Cl)c3)ncnc12` [3-chloroanilino / methyl], for which the pIC50 against MMK1 protein kinase is 5.02; in data set [1] (setting [9]), 4.80; in [2], 4.85; in [3] it was 5.00; in [4], 4.62; in data set [5] it was 4.46.
`CC(C)c1n[nH]c2c(NCc3cccc(O)c3)ncnc12` [3-hydroxybenzylamino / isopropyl, 7-(3-hydroxybenzylamino)-3-isopropylpyrazolo[4,3-d]pyrimidine]: the pIC50 in data set [1] is 6.05; in [2] it was 5.96; in [4] (Homo sapiens, MCF7, 72 h), 3.98; in [5] (Homo sapiens, K562, 72 h), 3.88. Besides, in data set [7], the “inhibition” value is “specific inhibition”.
Take `COc1ccc(CNc2ncnc3c(C(C)C)n[nH]c23)cc1` [4-methoxybenzylamino / isopropyl, 7-(4-methoxybenzyl)amino-3-isopropylpyrazolo[4,3d]pyrimidine]: the melting point was 143 to 144 °C. Further, the pIC50 in data set [1] was 6.00. In data set [2], this compound showed a pIC50 of 5.64. The pIC50 in data set [4] (Homo sapiens, MCF7, 72 h) was 4.55. The pIC50 in [5] (Homo sapiens, K562, 72 h) was 4.39.
In the case of `CC(C)c1n[nH]c2c(NC3CCCCC3N)ncnc12` (stereo not drawn) [(2-aminocyclohexyl)amino / isopropyl], the pIC50 is < 4.00 against MMK1 protein kinase; < 4.00 in [1] (setting [9]); < 4.00 in data set [2]; < 4.00 in data set [3]; < 3.78 in data set [4]; < 3.78 in data set [5].
With `C=CCNc1ncnc2c(C(C)C)n[nH]c12` [allylamino / isopropyl], the pIC50 in [6] (setting [10]) was 4.74; in data set [6] (setting [11]), 5.43; in [1], 4.85; in [2], 4.80; in data set [4] (Homo sapiens, MCF7, 72 h) it was 4.19; in data set [5] (Homo sapiens, K562, 72 h), 4.11.
As for `CC(C)c1n[nH]c2c(Nc3ccccc3)ncnc12` [anilino / isopropyl], the pIC50 in data set [6] (setting [10]) was 4.39; in [6] (setting [11]) it was 5.28; in [1], 5.28; in data set [2] it was 5.36; in data set [4] (Homo sapiens, MCF7, 72 h), 4.82; in [5] (Homo sapiens, K562, 72 h), 4.68.
Take `CC(C)c1n[nH]c2c(NCc3ccccc3)ncnc12` [benzylamino / isopropyl, 7-benzylamino-3-isopropylpyrazolo[4,3-d]pyrimidine]: the melting point lay in the range of 153 to 154 °C. Besides, the pIC50 in data set [6] (setting [10]) was 4.62. Further, in [6] (setting [11]), the pIC50 was 5.19. The same compound gave a pIC50 in data set [1] of 6.30. The same compound showed a pIC50 in data set [2] of 5.89. Moreover, the “inhibition” value in data set [7] is reported as “specific inhibition”. For the same compound, in data set [4] (Homo sapiens, MCF7, 72 h), the pIC50 is 4.26. The pIC50 in [5] (Homo sapiens, K562, 72 h) is 4.14.
For the compound `CC(C)c1n[nH]c2c(NC3CCCCC3)ncnc12` [cyclohexylamino / isopropyl], the pIC50 in data set [6] (setting [10]) is 4.34; in [6] (setting [11]), 5.03; in [1], 4.02; in data set [2], 4.10; in data set [4] (Homo sapiens, MCF7, 72 h) it was 4.02; in data set [5] (Homo sapiens, K562, 72 h) it was 4.01.
`CC(C)c1n[nH]c2c(NCc3ccco3)ncnc12` [furfurylamino / isopropyl, 7-furfurylamino-3-isopropylpyrazolo[4,3-d]pyrimidine] had a melting point of 179 to 182 °C. Besides, in data set [6] (setting [10]), the pIC50 is 4.60. In addition, the pIC50 in data set [6] (setting [11]) is 5.03. The compound further showed a negative logarithm of the IC50 (pIC50) in data set [1] of 6.10. In data set [2], the pIC50 was 5.74. Also, the pIC50 in data set [4] (Homo sapiens, MCF7, 72 h) was 3.89. The negative logarithm of the IC50 (pIC50) in data set [5] (Homo sapiens, K562, 72 h) is < 3.78.
For the compound `Cc1n[nH]c2c(NCc3ccco3)ncnc12` [furfurylamino / methyl, 7-furfurylamino-3-methylpyrazolo[4,3-d]pyrimidine], the pIC50 in data set [1] was 4.80; in data set [2], 4.74; in data set [4] (Homo sapiens, MCF7, 72 h) it was 3.85; in data set [5] (Homo sapiens, K562, 72 h), < 3.78. The “inhibition” value in [7] was “specific inhibition”.
With `CC(C)=CCNc1ncnc2c(C(C)C)n[nH]c12` [isopentenylamino / isopropyl, 7-(isopent-2-en-(1-yl)amino)-3-isopropylpyrazolo[4,3-d]pyrimidine], the pIC50 in data set [6] (setting [10]) was 4.82; in data set [6] (setting [11]) it was 5.77; in data set [1], 5.89; in data set [2], 5.35; in [4] (Homo sapiens, MCF7, 72 h) it was < 3.78; in data set [5] (Homo sapiens, K562, 72 h) it was < 3.78.
On to `CCCCCNc1ncnc2c(C(C)C)n[nH]c12` [pentylamino / isopropyl, 7-pentylamino-3-isopropylpyrazolo[4,3-d]pyrimidine], for which the melting point fell in the range of 73 to 75 °C. In [1], the pIC50 was 5.85. Moreover, the pIC50 in data set [2] is 5.77. Further, the pIC50 in data set [4] (Homo sapiens, MCF7, 72 h) is 4.49. Besides, in data set [5] (Homo sapiens, K562, 72 h), the pIC50 is 4.21.
For the compound `CC[C@H](CO)Nc1nc(NCc2ccccc2)c2ncn(C(C)C)c2n1` [roscovitine], the “apoptosis in plant cells” value in data set [8] is “induced apoptosis”.
